# System: HCV replicon cells
# Experiment: Cell-based HCV replicon assay (replicon RNA level by real time PCR, Taqman)
# Details: Hepatitis C virus, 72 h, HCV replicon cells, harvested day 3, replicon RNA by real time PCR; given as number; read-out: EC90 (μM) range
# Procedure: Assays Cell-Based HCV Replicon Assay
# To measure cell-based anti-HCV activity of the compounds of the present invention, replicon cells were seeded at 5000 cells/well in 96-well collagen I-coated Nunc plates in the presence of the compound of the invention. Various concentrations of a compound of the invention, typically in 10 serial 2-fold dilutions, were added to the assay mixture, the starting concentration of the compound ranging from 25 μM to 1 μM. The final concentration of DMSO was 0.5%, fetal bovine serum was 10%, in the assay media. Cells were harvested on day 3 by the addition of 1× cell lysis buffer (Ambion cat #8721). The replicon RNA level was measured using real time PCR (Taqman assay). The amplicon was located in 5B. The PCR primers were: 5B.2F, ATGGACAGGCGCCCTGA (SEQ. ID NO. 1); 5B.2R, […] (SEQ. ID NO. 2); the probe sequence was FAM-labeled CACGCCATGCGCTGCGG (SEQ. ID NO. 3). GAPDH RNA was used as endogenous control and was amplified in the same reaction as NS5B (multiplex PCR) using primers and VIC-labeled probe recommended by the manufacturer (PE Applied Biosystem). The real-time RT-PCR reactions were run on ABI PRISM 7900HT Sequence Detection System using the following program: 48′C for 30 min, 95° C. for 10 min, 40 cycles of 95° C. for 15 sec, 60° C. for 1 min. The ΔCT values (CT5B-CTGAPDH) were plotted against the concentration of test compound and fitted to the sigmoid dose-response model using GraphPad PRISM software. EC50 was defined as the concentration of inhibitor necessary to achieve ΔCT=1 over the projected baseline; EC90 the concentration necessary to achieve ΔCT=3.2 over the baseline. Alternatively, to quantitate the absolute amount of replicon RNA, a standard curve was established by including serially diluted T7 transcripts of replicon RNA in the Taqman assay. All Taqman reagents were from PE Applied Biosystems. Such an assay procedure was described in detail in e.g. Malcolm et al., Antimicrobial Agents and Chemotherapy 50: 1013-1020 (2006).
# HCV Replicon assay data for compounds of the invention that were tested was obtained using the above method. Calculated EC90 values are reported for each compound in Table I as a falling within the following ranges: […]
row,Structure (SMILES),EC90 [µM]
1,CCC(CC)Oc1cc2cc(-c3c(C)nc(NCCOC)nc3N[C@@H]3C[C@H](CO)[C@@H](O)[C@H]3O)oc2c(C)n1 [Example 48],> 25
2,COCCNc1nc(C)c(-c2cc3cc(OCC(C)(C)C)nc(C)c3o2)c(N[C@@H]2C[C@H](CO)[C@@H](O)[C@H]2O)n1 [Example 49],> 25
3,CCOc1cc2cc(-c3c(C)nc(NCc4c(F)cccc4F)nc3N[C@@H]3C[C@H](CO)[C@@H](O)[C@H]3O)oc2c(C)n1 [Example 50],0.05
4,CCOc1cc2cc(-c3c(C)nc(NCC4CC4)nc3N[C@@H]3C[C@H](CO)[C@@H](O)C3)oc2c(C)n1 [Example 52],0.3
5,Cc1nc(NCC(F)(F)F)nc(N[C@H]2C[C@H](O)[C@@H]3C[C@@H]32)c1-c1nc2ccccc2s1 [Example 53],2.1
6,Cc1nc(NCC(F)(F)F)nc(N[C@@H]2CC[C@@H](O)C2)c1-c1nc2ccccc2s1 [Example 54],1
7,CON=C1[C@H](Nc2nc(NCC(F)(F)F)nc(C)c2-c2nc3ccccc3s2)C[C@H](CO)[C@H]1O [Example 55],3.4
8,COc1cc(CNc2nc(C)c(-c3cc4cc(OCC5CC5)ncc4o3)c(N[C@@H]3C[C@H](CO)[C@@H](O)[C@H]3O)n2)cc(OC)c1 [Example 56],0.06
9,Cc1nc(NCC(C)(C)C)nc(N[C@@H]2C[C@H](CO)[C@@H](O)[C@H]2O)c1-c1cc2cc(OCC3CC3)ncc2o1 [Example 58],1
10,COCCNc1nc(C)c(-c2cc3cc(OCC4CC4)ncc3o2)c(N[C@@H]2C[C@H](CO)[C@@H](O)[C@H]2O)n1 [Example 59],2
11,CCCOc1cc2cc(-c3c(C)nc(NCC(C)(C)C)nc3N[C@@H]3C[C@H](CO)[C@@H](O)[C@H]3O)oc2cn1 [Example 61],> 1
12,CCCOc1cc2cc(-c3c(C)nc(NCC4CC4)nc3N[C@@H]3C[C@H](CO)[C@@H](O)[C@H]3O)oc2cn1 [Example 62],0.7
13,Cc1nc(NCC(F)(F)F)nc(N[C@@H]2C[C@H](COC(=O)N3CCOCC3)[C@@H](O)[C@H]2O)c1-c1nc2ccccc2s1 [Example 63],0.45
14,Cc1nc(NCC(F)(F)F)nc(N[C@@H]2C[C@H](COC(=O)N3CCCC3)[C@@H](O)[C@H]2O)c1-c1nc2ccccc2s1 [Example 64],0.8
15,CCN(CC)C(=O)OC[C@H]1C[C@@H](Nc2nc(NCC(F)(F)F)nc(C)c2-c2nc3ccccc3s2)[C@H](O)[C@@H]1O [Example 65],1
16,CNC(=O)OC[C@H]1C[C@@H](Nc2nc(NCC(F)(F)F)nc(C)c2-c2nc3ccccc3s2)[C@H](O)[C@@H]1O [Example 66],0.85
17,Cc1nc(NCCCF)nc(N[C@@H]2C[C@H](CO)[C@@H](O)[C@H]2O)c1-c1nc2ccccc2s1 [Example 127],0.7

# Same assay, conditions: Hepatitis C virus, 72 h, HCV replicon cells, harvested day 3, replicon RNA by real time PCR; reported as range class; read-out: EC90 (μM) range
row,Structure (SMILES),EC90 [µM]
1,CCCOc1cc2cc(-c3c(C)nc(NCCOC)nc3N[C@@H]3C[C@H](CO)[C@@H](O)[C@H]3O)oc2cn1 [Example 60],> 5
2,Nc1nc(Cl)c(-c2ccc(Oc3ccccc3)cc2)c(N[C@@H]2C[C@H](CO)[C@@H](O)[C@H]2O)n1 [Example 101],> 5
3,Nc1nc(Cl)c(-c2cc3ccccc3s2)c(N[C@@H]2C[C@H](CO)[C@@H](O)[C@H]2O)n1 [Example 102],> 5
4,Nc1nc(Cl)c(-c2ccccc2Oc2ccccc2)c(N[C@@H]2C[C@H](CO)[C@@H](O)[C@H]2O)n1 [Example 103],> 5
5,Nc1nc(Cl)c(-c2nccs2)c(N[C@@H]2C[C@H](CO)[C@@H](O)[C@H]2O)n1 [Example 104],> 5
6,Nc1nc(Cl)c(-c2nc3ccccc3s2)c(N[C@@H]2C[C@H](CO)[C@@H](O)[C@H]2O)n1 [Example 105],< 0.5
7,Nc1nc(Cl)c(-c2ncco2)c(N[C@@H]2C[C@H](CO)[C@@H](O)[C@H]2O)n1 [Example 106],> 5
8,Nc1nc(N[C@@H]2C[C@H](CO)[C@@H](O)[C@H]2O)c(-c2ncco2)c(-c2ncco2)n1 [Example 107],> 5
9,Nc1nc(Cl)c(-c2cc3cc(C(F)(F)F)ccc3o2)c(N[C@@H]2C[C@H](CO)[C@@H](O)[C@H]2O)n1 [Example 108],> 5
10,Nc1nc(Cl)c(-c2nc3ccccc3o2)c(N[C@@H]2C[C@H](CO)[C@@H](O)[C@H]2O)n1 [Example 109],< 0.5
11,Nc1nc(Cl)c(-c2nc3ccc(F)cc3s2)c(N[C@@H]2C[C@H](CO)[C@@H](O)[C@H]2O)n1 [Example 110],0.5 to 5
12,Nc1nc(Cl)c(-c2nc3cc(C(F)(F)F)ccc3s2)c(N[C@@H]2C[C@H](CO)[C@@H](O)[C@H]2O)n1 [Example 112],0.5 to 5
13,Nc1ncc(-c2cc3ccncc3o2)c(N[C@@H]2C[C@H](CO)[C@@H](O)[C@H]2O)n1 [Example 113],0.5 to 5
14,CN(C)c1ccc2nc(-c3c(Cl)nc(N)nc3N[C@@H]3C[C@H](CO)[C@@H](O)[C@H]3O)sc2c1 [Example 115],> 5
15,OC[C@H]1C[C@@H](Nc2nc(N3CCOCC3)nc(Cl)c2-c2nc3ccccc3s2)[C@H](O)[C@@H]1O [Example 116],0.5 to 5
16,CN(C)c1nc(Cl)c(-c2nc3ccccc3o2)c(N[C@@H]2C[C@H](CO)[C@@H](O)[C@H]2O)n1 [Example 117],0.5 to 5
17,OC[C@H]1C[C@@H](Nc2ncnc(Cl)c2-c2nc3ccccc3s2)[C@H](O)[C@@H]1O [Example 118],> 5
18,Cc1nc(N)nc(N[C@@H]2C[C@H](CO)[C@@H](O)[C@H]2O)c1-c1nc2ccccc2s1 [Example 119],< 0.5
19,COC[C@H]1C[C@@H](Nc2nc(N(C)C)nc(Cl)c2-c2nc3ccccc3s2)[C@@H]2OC(C)(C)O[C@H]12 [Example 120],> 5
20,COC[C@H]1C[C@@H](Nc2nc(N(C)C)nc(Cl)c2-c2nc3ccccc3s2)[C@H](O)[C@@H]1O [Example 121],< 0.5
21,COC[C@H]1C[C@@H](Nc2nc(N(C)C)nc(C)c2-c2nc3ccccc3s2)[C@H](O)[C@@H]1O [Example 123],> 5
22,OC[C@H]1C[C@@H](Nc2nc(NCC(F)(F)F)nc(Cl)c2-c2nc3ccccc3s2)[C@H](O)[C@@H]1O [Example 124],< 0.5
23,Cc1nc(NCC(F)(F)F)nc(N[C@@H]2C[C@H](CO)[C@@H](O)[C@H]2O)c1-c1nc2ccccc2s1 [Example 125],< 0.5
24,OC[C@H]1C[C@@H](Nc2nc(NCCCF)nc(Cl)c2-c2nc3ccccc3s2)[C@H](O)[C@@H]1O [Example 126],< 0.5

# Same assay, conditions: Hepatitis C virus, 72 h, HCV replicon cells, harvested on day 3, replicon RNA by real time PCR; calculated EC90 reported as range class; read-out: EC90 (μM) range
row,Structure (SMILES),EC90 [µM]
1,OC[C@H]1C[C@@H](Nc2nc(NCC(F)(F)F)nc(C3CC3)c2-c2nc3ccccc3s2)[C@H](O)[C@@H]1O [Example 128],> 5
2,OC[C@H]1C[C@@H](Nc2nc(NC(CF)CF)nc(Cl)c2-c2nc3ccccc3s2)[C@H](O)[C@@H]1O [Example 129],< 0.5
3,Cc1nc(NC(CF)CF)nc(N[C@@H]2C[C@H](CO)[C@@H](O)[C@H]2O)c1-c1nc2ccccc2s1 [Example 130],> 5
4,C[C@H](Nc1nc(Cl)c(-c2nc3ccccc3s2)c(N[C@@H]2C[C@H](CO)[C@@H](O)[C@H]2O)n1)C(F)(F)F [Example 131],< 0.5
5,Cc1nc(N[C@@H](C)C(F)(F)F)nc(N[C@@H]2C[C@H](CO)[C@@H](O)[C@H]2O)c1-c1nc2ccccc2s1 [Example 132],0.5 to 5
6,CCOCCNc1nc(C)c(-c2nc(C)c(C)s2)c(N[C@@H]2C[C@H](CO)[C@H]3OC(C)(C)O[C@H]32)n1 [Example 133],> 5
7,CCOCCNc1nc(C)c(-c2cc3cc(C(F)(F)F)ncc3o2)c(N[C@@H]2C[C@H](CO)[C@H]3OC(C)(C)O[C@H]32)n1 [Example 134],> 5
8,COCCNc1nc(C)c(-c2cc3cc(C(F)(F)F)ncc3o2)c(N[C@@H]2C[C@H](CO)[C@H]3OC(C)(C)O[C@H]32)n1 [Example 135],> 5
9,Cc1nc(NC(CF)CF)nc(N[C@@H]2C[C@H](CO)[C@H]3OC(C)(C)O[C@H]32)c1-c1nc2ccccc2s1 [Example 136],0.5 to 5
10,CCOCCNc1nc(C)c(-c2nc(C)c(C)s2)c(N[C@@H]2C[C@H](CO)[C@@H](O)[C@H]2O)n1 [Example 137],0.5 to 5
11,CCOCCNc1nc(C)c(-c2cc3cc(C(F)(F)F)ncc3o2)c(N[C@@H]2C[C@H](CO)[C@@H](O)[C@H]2O)n1 [Example 138],< 0.5
12,COCCNc1nc(C)c(-c2cc3cc(C(F)(F)F)ncc3o2)c(N[C@@H]2C[C@H](CO)[C@@H](O)[C@H]2O)n1 [Example 139],0.5 to 5
13,Cc1nc(NCC(F)(F)F)nc(N[C@@H]2C[C@H](CO)[C@H]3OC(C)(C)O[C@H]32)c1-c1cc2cc(C(F)(F)F)ncc2o1 [Example 140],0.5 to 5

# Reference: patent US8697694B2, “Substituted pyridine and pyrimidine derivatives and their use in treating viral infections” (priority 2008, dated 2014)
